# Data: US8420331B2, “Type IV collagen-like immunoreactive peptide” (priority 2006, dated 2013)
# Tests used:
# [1] = test system: antibody (IgG) in urine of nephritis patients; assay: Screening of antigenic site on alpha 5 chain NC1: ELISA with synthetic peptides as coating antigen; assay type: binding, human
# Method: A preliminary test was carried out, using the ELISA method, in which NC1 as the antigen for coating was replaced with synthetic peptides. The measurement conditions were: antigen concentration: 10 μg/mL (10 mM PBS), 100 μL/well; blocking agent: Block Ace (manufactured by Dainippon Pharmaceutical Co., Ltd.) diluted to 25%, 250 μL/well; urine: human 20- to 100-fold dilution; second antibody (enzyme-labeled anti-human IgG antibody): ×800; and substrate solution: TMB (+) (manufactured by DAKO Corp). The specimen was diluted to 20- to 100-fold, unlike the original fourfold dilution of NC1 as the antigen. […] Accordingly, a main test was carried out using NC1 of the alpha 5 chain. Note that 301 contained the amino acid sequence about 5 to 18 from the N-terminus on the alpha 3 chain corresponding to Goodpasture syndrome specified by computer software. Furthermore, it was possible to check alpha chains other than the alpha 5 chain, such as 301. […] Therefore, it was possible to use both antigens as nephritis detection reagents.
# A test was carried out using the ELISA method, in which NC1 as the antigen for coating was replaced with synthetic peptides, under the same conditions as those described above.
# The peptides of the alpha 5 chain were prepared as described below. Fifteen synthetic peptides were prepared from the whole region of the alpha 5 chain NC1, in which a first unit of 20 amino acid residues was selected from the N-terminus, and subsequent units, each containing 20 amino acid residues, were selected with 5 amino acid residues overlapping each other (hereinafter referred to as yp01 to yp15 (H4NA5-1 to 5-15 in FIG. 6), yp15 containing more than 20 amino acid residues). […] Thus, the five peptides were antigenic sites common to the specimen A, the specimen B, and IgA nephropathy which were derived from different diseases. As described above, bovine glomerulus-derived NC1 and triple helix have substantially the same reactivity with nephritis urine specimens, and both are considered to be common antigens to nephritis. Thus, the triple helix (7S and/or the central helical domain) of the alpha 5 chain and peptides thereof can be considered as immunoreactive peptide candidates. The whole alpha 5 chain may be used as an antigen. However, in such a case, a time-consuming process is required.
# rabbits (female) [2] = assay: ELISA antibody level in serum of peptide-immunised rabbits (peptide-coated microplate); assay type: in vivo; conditions: rabbit serum
# Method: (§1) Peptides 0.3 mg/mL (0.15 mg only for initial administration) together with the same amount of FCA were intradermally administered to rabbits (female) once in two weeks, four times in total.
# Furthermore, in the ELISA method in which the microplate was coated with the peptide yp12 (SEQ ID NO: 6) (10 μg/mL), in 7 weeks after the initial administration, at a dilution of 32,000 fold, the antibody level in serum reached 3.00, which is in the vicinity of the upper limit of measurement of the absorptiometer.
# rabbits (female) [3] = assay: Nephritis model using immunoreactive peptide as inducer, rabbits, urinary protein; assay type: in vivo, rabbit; conditions: peptide 0.3 mg/mL with FCA intradermally once in two weeks, four times
# Method: The selected peptides can be used as an inducer of nephritis independently and/or in combination with each other. Although yp08 (SEQ ID NO: 8) and yp12 (SEQ ID NO: 6) were used as peptides and rabbits and guinea pigs were used as animals, the peptides, animals, and administration methods are not limited thereto.
# as §1
# guinea pigs (female) = assay: ELISA antibody level in serum of peptide-immunised guinea pigs (yp12-coated microplate); assay type: in vivo; conditions: guinea pig serum, dilution 8,000 fold, 7 weeks after initial administration
# Method: Peptides 0.1 mg/mL together with the same amount of FCA were intradermally administered to guinea pigs (female) once in two weeks, four times in total.
# Furthermore, in the ELISA method in which the microplate was coated with the peptide yp12 (SEQ ID NO: 6) (10 μg/mL), in 7 weeks after the initial administration, at a dilution of 8,000 fold, the antibody level in guinea pig serum reached 3.00, which is in the vicinity of the upper limit of measurement of the absorptiometer. Furthermore, intra-abdominal administration to rats or mice of these anti-immunoreactive peptide antibodies (antiserum) enabled production of models of nephritis which was weak, close to that of human, and slowly progressive, unlike the administration of conventional anti-NC1 antibodies (antiserum).
# [4] = specimen A (chronic nephritis: No. 38)
# [5] = specimen B (diabetic nephritis: No. 42)
Substance,reaction with urine specimen ([1]; IgA nephropathy),"reaction with urine specimen [1, 4]","reaction with urine specimen [1, 5]","ELISA antibody level in serum (A450 nm) (rabbits (female) [2]; dilution ×8,000)",urinary protein (rabbits (female) [3]),"ELISA antibody level in serum (A450 nm) (rabbits (female) [2]; dilution 32,000 fold, 7 weeks after initial administration)",ELISA antibody level in serum (A450 nm) (guinea pigs (female))
"GRGTC NYYAN SYSFW LATVD (GRGTCNYYANSYSFWLATVD; peptide with homology to Type IV collagen) [yp13, synthetic 20-residue peptide from human type IV collagen alpha 5 chain NC1]",strongly reacted,strongly reacted,strongly reacted,–,–,–,–
"STMPF MFCNI NNVCN FASRN (STMPFMFCNINNVCNFASRN; peptide with homology to Type IV collagen) [yp05, synthetic 20-residue peptide from human type IV collagen alpha 5 chain NC1]",strongly reacted,strongly reacted,strongly reacted,–,–,–,–
"GWDSL WIGYS FMMHT SAGAE (GWDSLWIGYSFMMHTSAGAE; peptide with homology to Type IV collagen) [yp10, synthetic 20-residue peptide from human type IV collagen alpha 5 chain NC1]",strongly reacted,strongly reacted,strongly reacted,–,–,–,–
"PFISR CAVCE APAVV IAVHS (PFISRCAVCEAPAVVIAVHS; peptide with homology to Type IV collagen) [yp08, synthetic 20-residue peptide from human type IV collagen alpha 5 chain NC1]",strongly reacted,strongly reacted,strongly reacted,3.00,+2,–,–
"SCLEE FRSAP FIECH GRGTC (SCLEEFRSAPFIECHGRGTC; peptide with homology to Type IV collagen) [yp12, synthetic 20-residue peptide from human type IV collagen alpha 5 chain NC1]",strongly reacted,strongly reacted,strongly reacted,–,+2,3.00,3.00
